Assay results reported in publication PMC12811501, “A plant-derived antimicrobial peptide with multiple mechanisms of action exhibiting antibacterial and antibiofilm activities comparable to or superior to polymyxin B” (Current Research in Microbial Sciences, 2025).
In brackets after ≈: the same amount, converted by molar mass. Residues, ends and D or L forms follow the SMILES beside them.

Assays:
Acinetobacter baumannii = test: microbe, parasite or virus in culture; type: cell-based
Method: For the biofilm inhibition assay the antimicrobial activity test was done in 1/10 MHB using A. baumannii treated with the respective dilutions of NCR169C17–38, meropenem or polymixin B for 24 h. After taking the 5 μl samples at the end of the treatment and placed on LB agar to detect bacterial growth, the rest of the grown bacterial suspensions were discarded from the plate and the remaining biofilm on the walls of the plate was then washed three times with sterile water and stained using 1 % Crystal Violet (CV) for 15 min to visualize the produced biofilm. The non-adherent CV dye was then removed by washing with water three times. The plate was left for complete drying, then the biofilm-bound CV dye was dissolved in 200 µl of 30 % acetic-acid with shaking over 15 min. The absorbance was measured at OD550 using a HIDEX Plate Reader (Hidex Sense Microplate Reader with Plate Reader Software version 5064, Hidex, Finland). All measurements were repeated three times.
We examined the capacity of NCR169C17–38 to inhibit biofilm formation by Acinetobacter baumannii, a pathogen well known for its robust biofilm production and high level of antibiotic resistance. […] Additionally, at the end of the experiment we determined the quantity of the biofilm and thereby evaluated their ability to inhibit biofilm formation during culturing the bacteria in the presence of different concentrations of the agents (Fig. 1.A). We tested concentrations of NCR169C17–38 ranging from 25 μM to 0.4 μM, meropenem from 100 μM to 1.6 μM and polymyxin B from 3.1 μM to 0.05 μM.

E. coli [1] = test: Live/Dead staining (SYTO 9 / PI) of membrane integrity, confocal microscopy; type: cell-based, Escherichia coli; details: 10 min
Method: Microbial cell membrane integrity or damage was assayed with Live/Dead staining. E. coli were grown as for the antimicrobial activity assay and washed with PPB. […] Untreated cells served as negative control. Cells were subsequently stained with 5 μM SYTO 9 and 5 μM propidium iodide (PI). After a 10-minute incubation in the dark, 5 µl of each cell suspension was placed on a microscope slide, covered with thin 2 % (w/v) agar slices, and examined using an Olympus Fluoview FV1000 confocal laser microscope at × 60 magnification. For SYTO 9, excitation was at 488 nm and emission was collected between 500 and 530 nm; for PI, excitation was at 543 nm with emission detected between 555 and 655 nm. Sequential scanning was used to avoid crosstalk of the fluorescent dyes.
Next, we investigated whether the application of NCR169C17–38 peptide affects membrane permeability of E. coli, and if so, to what extent and how rapidly these changes occur.

E. coli [2] = test: Real-time PI uptake; type: cell-based, Escherichia coli
Method: To monitor PI uptake in real time, 10 µl of E. coli suspension (OD₆₀₀ = 0.1, prepared as described above) was mixed with 90 µl of PPB containing a two-fold serial dilution of NCR169C17–38 (12.5 µM to 0.8 µM) or polymyxin B (0.8 µM), along with 200 ng/ml PI. Fluorescence was recorded using a Hidex Sense Microplate Reader (software version 5064) with excitation and emission wavelengths set at 535 nm and 617 nm, respectively. Experiments were repeated three times.
To get a more precise assessment of how rapidly NCR169C17–38 induces membrane damage, we monitored PI uptake in real time. E. coli was treated in a microtiter plate with two-fold dilutions of NCR169C17–38 (12.5 - 0.8 µM) and PI fluorescence was measured using a plate reader (Fig. 2.C). For comparison, polymyxin B, a well-known membrane-permeabilizing/damaging antibiotic, was included as a control. A rapid rise in fluorescence within 1–2 min was observed upon exposure to NCR169C17–38 at MBC or higher concentrations, indicating swift membrane permeabilization.

E. coli genomic DNA = test: Gel retardation assay; type: binding, Escherichia coli; details: 100 ng E. coli genomic DNA, 10 or 100 µM peptide, 30 min at 37 °C
Method: (§1) The DNA- and RNA-binding abilities of NCR169C17–38, its parental peptide NCR169, and two shorter derivatives (NCR169_16–27 and NCR169_17–27) were initially evaluated using a gel retardation assay. In this setup, 100 ng of either E. coli genomic DNA or total RNA was incubated with 10 µM or 100 µM of each peptide for 30 min at 37 °C. Reaction mixtures, along with untreated controls, were then subjected to agarose gel electrophoresis, and the resulting nucleic acid migration patterns were examined for changes indicative of peptide binding. The interaction of NCR169C17–38 with circular plasmid DNA (pDEST-GBKT7) was also characterized using peptide concentrations ranging from 50 µM to 0.8 µM, prepared by 2-fold serial dilution. Experiments were done in three biological replicates.
(§2) To explore whether the NCR169C17–38 peptide has secondary intracellular targets of the bacterial cells beyond the primary membrane disruption, we tested its possible interaction with nucleic acids in gel retardation assays. A pilot experiment indicated strong DNA-binding capacity, prompting us to include the parental NCR169 peptide and the shorter derivatives NCR169_16–27 and NCR169_17–27 for comparison (Fig. 3.). […] Similar results were obtained with total E. coli RNA (Fig. 3.B). […]

E. coli total RNA = test: Gel retardation assay; type: binding, Escherichia coli; details: 100 ng E. coli total RNA, 10 or 100 µM peptide, 30 min at 37 °C
Method: as §1, §2

Q: Which MBC (Acinetobacter baumannii; 24 h, read-out: MBC, Inhibition test after 24 h) does the source give for CC[C@H](C)[C@H](NC(=O)[C@H](CCCCN)NC(=O)[C@H](Cc1ccccc1)NC(=O)[C@H](CC(C)C)NC(=O)[C@@H]1CCCN1C(=O)[C@H](CCCCN)NC(=O)[C@H](CCCCN)NC(=O)[C@H](CO)NC(=O)[C@@H](N)CCCCN)C(=O)N[C@@H](Cc1c[nH]c2ccccc12)C(=O)N[C@@H](CCCCN)C(=O)N[C@@H](CS)C(=O)N[C@H](C(=O)N[C@@H](CCC(=O)O)C(=O)N[C@@H](CC(N)=O)C(=O)N[C@H](C(=O)N[C@@H](CS)C(=O)N[C@H](C(=O)N[C@@H](CC(C)C)C(=O)N[C@@H](Cc1c[nH]c2ccccc12)C(=O)N[C@@H](Cc1ccc(O)cc1)C(=O)N[C@@H](CCCCN)C(N)=O)C(C)C)C(C)C)C(C)C [NCR169C17–38] (H-KSKKPLFKIWKCVENVCVLWYK-NH2; N-terminus assumed) here?
A: Its MBC is 6.3 µM (≈ 17.3 µg/mL).

Q: What about the “inhibition of biofilm formation (Crystal Violet, OD550)” value (Acinetobacter baumannii; A. baumannii, 24 h treatment, NCR169C17–38 25-0.4 μM, meropenem 100-1.6 μM, polymyxin B 3.1-0.05 μM) of the same molecule?
A: Its value is “remaining effective even at lower doses”.

Q: What about the “membrane integrity, SYTO 9 / PI staining” value (E. coli [1]; 0.8 µM peptide) of the same molecule?
A: Its value is “predominantly red-stained cells”.

Q: What about the “membrane integrity, SYTO 9 / PI staining” value (E. coli [1]; 1.6 µM peptide) of the same molecule?
A: Its value is “all cells appeared red”.

Q: And the “time to rapid rise in PI fluorescence” value (E. coli [2]; E. coli in PPB, peptide at MBC or higher concentrations (12.5-0.8 µM tested), 200 ng/ml PI)?
A: Its value is 1 to 2 min.

Q: What about the “PI uptake kinetics compared at respective MBC values” (E. coli [2]; E. coli, polymyxin B 0.8 µM as control) of the same molecule?
A: The value was “more rapidly and effectively than polymyxin B”.

Q: And the “DNA binding, gel retardation” value (E. coli genomic DNA)?
A: The value was “completely preventing DNA migration from the well at the lower concentration”.

Q: And the “RNA binding, gel retardation” value (E. coli total RNA)?
A: Its value is “completely blocked RNA migration at high concentrations”.
